According to ChEMBL document CHEMBL2021875, “Anthracyclinones from Micromonospora sp” (J Nat Prod, 2012):

system: HCT-8; experiment: Cytotoxicity against human HCT8 cells after 72 hrs by MTT assay; assay type: functional, cell-based; settings: HCT-8, 72 h

Q: For `CCCc1ccc2c(O)c3c(c(O)c2c1)C(=O)c1cccc(O)c1C3=O`, which IC50 is on record?
A: 12.7 µM

Q: Which IC50 does the source give for `CCCc1ccc2c(c1)C(=O)c1cc3cccc(OC)c3cc1C2=O` here?
A: > 70 µM

Q: How did the IC50 turn out when `CCC[C@@]1(O)CCC2=C(C1)C(=O)c1cc3cccc(OC)c3cc1C2=O` was run?
A: > 70 µM

Q: `CCC[C@@]1(O)C[C@H](O)c2c(O)c3c(c(O)c2[C@H]1C(=O)OC)C(=O)c1cccc(O)c1C3=O` was tested. Which IC50 did it give?
A: 6.2 µM

Q: For `COc1cccc2c1C(=O)c1c(O)c3c(c(O)c1C2=O)C[C@@](O)(C(=O)CO)C[C@@H]3O[C@H]1C[C@H](N)[C@H](O)[C@H](C)O1` [DOXORUBICIN], which IC50 is on record?
A: 0.1 µM
